Test results: a compilation of properties of binary mixtures (doi:10.1016/j.fluid.2015.05.023)

Assay: xn = mol fraction of the nth substance listed
Details: 100 kPa

CCCn1cc[n+](C)c1.O=S(=O)([N-]S(=O)(=O)C(F)(F)F)C(F)(F)F + O
x2 = 0.272
Details | viscosity [mPa·s]
298.15 K | 26.63
303.15 K | 22.24
313.15 K | 16.12
328.15 K | 10.73
333.15 K | 9.52
338.15 K | 8.5
348.15 K | 6.9
358.15 K | 5.69
363.15 K | 5.22

CCCCCCCn1cc[n+](CCCCCCC)c1.O=S(=O)([N-]S(=O)(=O)C(F)(F)F)C(F)(F)F + O
x2 = 0.1365
Details | viscosity [mPa·s]
298.15 K | 100.8
303.15 K | 78.57
308.15 K | 62.48
313.15 K | 50.44
318.15 K | 41.29
323.15 K | 34.22
328.15 K | 28.65
333.15 K | 24.25
338.15 K | 20.67
343.15 K | 17.8
348.15 K | 15.46
353.15 K | 13.51
358.15 K | 11.9
363.15 K | 10.53

CCCn1cc[n+](CCC)c1.O=S(=O)([N-]S(=O)(=O)C(F)(F)F)C(F)(F)F + O
x2 = 0.2232
Details | viscosity [mPa·s]
298.15 K | 35.66
308.15 K | 24.31
318.15 K | 17.47
323.15 K | 15.05
328.15 K | 13.09
338.15 K | 10.15
343.15 K | 9.03
353.15 K | 7.29
358.15 K | 6.6

CCn1cc[n+](CC)c1.O=S(=O)([N-]S(=O)(=O)C(F)(F)F)C(F)(F)F + O
x2 = 0.2772
Details | viscosity [mPa·s]
298.15 K | 19.32
303.15 K | 16.55
308.15 K | 14.34
313.15 K | 12.53
323.15 K | 9.8
328.15 K | 8.75
333.15 K | 7.87
338.15 K | 7.11
343.15 K | 6.46
348.15 K | 5.89
353.15 K | 5.39
363.15 K | 4.57

CCCCCn1cc[n+](C)c1.O=S(=O)([N-]S(=O)(=O)C(F)(F)F)C(F)(F)F + O
x2 = 0.2211
Details | viscosity [mPa·s]
298.15 K | 38.65
303.15 K | 31.67
308.15 K | 26.32
323.15 K | 16.22
328.15 K | 14.08
333.15 K | 12.32
338.15 K | 10.87
343.15 K | 9.65
348.15 K | 8.63
353.15 K | 7.75
358.15 K | 7
363.15 K | 6.36

CCCCCCCCCCCn1cc[n+](C)c1.O=S(=O)([N-]S(=O)(=O)C(F)(F)F)C(F)(F)F + O
x2 = 0.1567
Details | viscosity [mPa·s]
298.15 K | 96.4
303.15 K | 75.7
308.15 K | 60.46
313.15 K | 49.36
318.15 K | 40.26
323.15 K | 33.49
328.15 K | 28.17
333.15 K | 24.19
343.15 K | 17.77
348.15 K | 15.5
353.15 K | 13.94
358.15 K | 12.05
363.15 K | 10.72

CC[n+]1ccn(C)c1.O=S(=O)([N-]S(=O)(=O)C(F)(F)F)C(F)(F)F + O
x2 = 0.298
Details | viscosity [mPa·s]
298.15 K | 18.97
308.15 K | 14.06
318.15 K | 10.83
323.15 K | 9.63
328.15 K | 8.615
338.15 K | 7.02
343.15 K | 6.382
348.15 K | 5.832
353.15 K | 5.35
358.15 K | 4.926
363.15 K | 4.549

Cn1cc[n+](C)c1.O=S(=O)([N-]S(=O)(=O)C(F)(F)F)C(F)(F)F + O
x2 = 0.3548
Details | viscosity [mPa·s]
298.15 K | 18.59
303.15 K | 15.87
308.15 K | 13.73
313.15 K | 11.99
318.15 K | 10.57
323.15 K | 9.39
328.15 K | 8.39
333.15 K | 7.55
338.15 K | 6.84
343.15 K | 6.22
348.15 K | 5.69
353.15 K | 5.23
358.15 K | 4.82
363.15 K | 4.46

CCCCCCCCn1cc[n+](CCCCCCCC)c1.O=S(=O)([N-]S(=O)(=O)C(F)(F)F)C(F)(F)F + O
x2 = 0.1246
Details | viscosity [mPa·s]
298.15 K | 120.2
313.15 K | 58.75
318.15 K | 47.76
323.15 K | 39.33
328.15 K | 32.75
333.15 K | 27.56
338.15 K | 23.43
343.15 K | 20.09
348.15 K | 17.37
353.15 K | 15.13
363.15 K | 11.72

CCCCCn1cc[n+](CCCCC)c1.O=S(=O)([N-]S(=O)(=O)C(F)(F)F)C(F)(F)F + O
x2 = 0.1575
Details | viscosity [mPa·s]
298.15 K | 66.87
303.15 K | 53.1
308.15 K | 42.91
318.15 K | 29.21
323.15 K | 24.56
328.15 K | 20.86
333.15 K | 17.88
343.15 K | 13.46
348.15 K | 11.83
353.15 K | 10.46
363.15 K | 8.34

CCCCCCC[n+]1ccn(C)c1.O=S(=O)([N-]S(=O)(=O)C(F)(F)F)C(F)(F)F + O
x2 = 0.1971
Details | viscosity [mPa·s]
298.15 K | 52.98
303.15 K | 42.58
313.15 K | 28.95
328.15 K | 17.77
333.15 K | 15.4
338.15 K | 13.45
343.15 K | 11.85
348.15 K | 10.51
353.15 K | 9.36
363.15 K | 7.58

CCCCCCCCCn1cc[n+](C)c1.O=S(=O)([N-]S(=O)(=O)C(F)(F)F)C(F)(F)F + O
x2 = 0.1736
Details | viscosity [mPa·s]
303.15 K | 57.66
313.15 K | 39.1
328.15 K | 22.64
333.15 K | 19.7
338.15 K | 16.81
343.15 K | 14.67
348.15 K | 12.89
353.15 K | 11.68

CCCCCCn1cc[n+](CCCCCC)c1.O=S(=O)([N-]S(=O)(=O)C(F)(F)F)C(F)(F)F + O
x2 = 0.1489
Details | viscosity [mPa·s]
298.15 K | 83.49
308.15 K | 52.59
313.15 K | 42.72
318.15 K | 35.17
323.15 K | 29.31
333.15 K | 21.02
338.15 K | 18.06
343.15 K | 15.65
348.15 K | 13.67
353.15 K | 12
358.15 K | 10.63
363.15 K | 9.466

CCCC[n+]1ccn(C)c1.O=S(=O)([N-]S(=O)(=O)C(F)(F)F)C(F)(F)F + O
x2 = 0.257
Details | viscosity [mPa·s]
298.15 K | 31.31
303.15 K | 25.93
308.15 K | 21.78
313.15 K | 18.52
318.15 K | 15.92
323.15 K | 13.82
328.15 K | 12.1
338.15 K | 9.475
348.15 K | 7.629
358.15 K | 6.275
363.15 K | 5.73

CCCCn1cc[n+](CCCC)c1.O=S(=O)([N-]S(=O)(=O)C(F)(F)F)C(F)(F)F + O
x2 = 0.1843
Details | viscosity [mPa·s]
298.15 K | 48.47
303.15 K | 39.12
313.15 K | 26.74
318.15 K | 22.52
323.15 K | 19.19
328.15 K | 16.51
333.15 K | 14.32
338.15 K | 12.53
343.15 K | 11.04
348.15 K | 9.78
353.15 K | 8.73
